According to patent US12616203B2, “Use of 3-isoxazolidinones compounds as selective herbicides” (FMC Corporation, priority 2014, dated 2026):
“Also recorded” adds a separate entry of the source.

Key:
jimsonweed = assay: Ex15 PRE 2,4-DC + S-metolachlor, % control 28 DAT, Colby; format: in vivo, Datura stramonium
From the text: The weeds tested in this study were redroot pigweed (Amaranthus retroflexus, AMARE), Jimsonweed (Datura stramonium, DATST), black nightshade (Solanum nigrum, SOLNI), large crabgrass (Digitaria sanguinalis, DIGSA), Pennsylvania smartweed (Polygonum pensylvanicum, POLPY), horseweed (Conyza canadensis, ERICA), wild buckwheat (Polygonum convolvulus, POLCO). The crop tested was Corn (var. Viking).
To determine PRE efficacy and corn injury, five rates of each 2,4 DC (36.7% CS) and S-metolachlor (Dual II Magnum®, 82.4%) were applied either alone or as tank-mix. 2,4 DC was applied at 0, 125, 170, 210, or 250 g ai/ha and S-metolachlor was applied at 0, 267, 534, 801, or 1070 g ai/ha. Additional treatments included application of premix of pyroxasulfone plus fluthiacet-methyl (Anthem™ 23.3%) at 169.9 g ai/ha and tank-mix of mesotrione (Callisto®, 40%) at 123 g plus S-metolachlor at 1252 g. Treatments were applied just after the planting of large crabgrass, Jimsonweed, black nightshade, redroot pigweed, Pennsylvania smartweed, horseweed, wild buckwheat, and corn.
Flats were watered and fertilized routinely after treatment application. Each treatment was replicated three times. […] Corn injury was rated for bleaching and stunting.

Morningglory sp. = assay: Ex38 PRE 2,4-DC + pyroxasulfone, % control 28 DAT, Colby; format: in vivo, Ipomea spp
From the text: Pyroxasulfone plus fluthiacet-methyl (ANTHEM™, 23.3%) applied at 165 g ai/ha was included as a standard for comparison. […] Thereafter flats were watered and fertilized routinely.

[1] = system: weeds; Wheat, barley, and oil seed rape (OSR); assay: Ex19 PRE greenhouse; format: in vivo; details: rate in the words
From the text: In this study, the crops tested included Wheat, barley, and oil seed rape (OSR).
To determine weed efficacy and wheat, barley or OSR selectivity, 2,4 DC (CS 36.7%) and Diflufenican (CS 19.5%) were applied preemergence either alone or as tank-mix partners at the following rates. 2,4 DC was applied at 125, 170, 210 and 250 g ai/ha while Diflufenican was applied at 50, 75, and 100 g ai/ha. Pyroxasulfone (KIH-485, 85%) at 74.3 g ai/ha, pendimethalin (Prowl 3.3EC, 37.4%) at 1200 g ai/ha, or a premix of chlorsulfuron plus metsulfuron-methyl (Report Extra, 75%) at 15.8 g ai/ha were applied as commercial standards.
Herbicides included as standards for comparison were pyroxasulfone, pendimethalin, and a pre mix of chlorsulfuron plus metsulfuron methyl, all applied at labeled rates as indicated above. Treatments were replicated 3 times. […] Thereafter flats were watered and fertilized routinely.

weeds = assay: Ex10 PRE greenhouse; format: in vivo; details: 28 DAT, weed and rate in the words
Barley = assay: Ex40 POST 2,4-DC + metsulfuron-methyl, crop injury 7 DAT; format: in vivo
Protocol: (§1) Treatments were applied to barley and wheat crops.
(§2) Non-ionic surfactant (NIS) was added to all treatments at 0.5% v/v. All plant species were direct seeded into 3″ plastic pots using metro-mix as growth media. At treatment common lambsquarters was 1.75″, common chickweed was 2″, wild mustard was 2.25″, wild oat was 5.5″, wild buckwheat was 2-5″, Italian ryegrass was 2-3″, wheat was 5.5″ and barley was 4.5″ in height. Plants were watered well before application and not watered 24 h after application. Plants were watered and fertilized routinely after treatment application. Each treatment was replicated four times. Treated flats were placed in randomized block design in the greenhouse.

wheat = assay: as above; format: in vivo
Protocol: as §1, §2

weeds; Corn = assay: Ex25 PRE greenhouse; format: in vivo; details: rate in the words
From the text: The crop tested in this study was Corn.
2,4 DC-21 (36.7% CS) was applied PRE at 0, 125, 170, 210, or 250 g ai/ha alone or as a tank-mix with pyroxasulfone (KIH-485, 85% WP) at 0, 50, 65, 80, or 95 g ai/ha. Pyroxasulfone plus fluthiacet-methyl (Anthem™, 23.3%) applied at 169.9 g ai/ha, s-metolachlor (Dual II Magnum®, 82.4%) applied at 1389 g, and the tank-mix of mesotrione (Callisto®, 40%) at 123 g plus s-metolachlor (Dual II Magnum®, 82.4%) at 1252 g were included as a standards for comparison. […] Thereafter flats were watered and fertilized routinely.

sedges = assay: Ex26 PRE greenhouse; format: in vivo; details: 28 DAT, weed and rate in the words
From the text: Treatments were applied at the time of planting to yellow nutsedge, purple nutsedge, and benghal dayflower. […] Flats were watered and fertilized routinely after treatment application.

Wild buckwheat = assay: Ex12 PRE 2,4-DC + dimethenamid-P, % control 28 DAT, Colby; format: in vivo, Polygonum convolvulus
Protocol: The tested weeds include: wild buckwheat (Polygonum convolvulus, POLCO), velvetleaf (Abutilon theophrasti, ABUTH), cheat (Bromus secalinus, BROSE), wild oat (Avena fatua, AVEFA), radish (Raphanus sativus, RAPSN), corn poppy (Papaver rhoeas, PAPRH), yellow foxtail (Setaria pumila, SETLU), Italian ryegrass (Lolium perenne ssp. multiflorum, LOLMU). The tested crop was Oilseed rape.
This greenhouse study was conducted to assess the preemergence (PRE) weed control and oilseed rape tolerance with 2,4 DC (CS 36.7%) and dimethenamid-P (Outlook®, 63.9%) tank-mix combinations.
Metazachlor (Butisan, 43.1%) plus dimethenamid-P applied as tank mix at 500 g each was applied as commercial standard. Treatments were replicated 3 times and flats were watered after planting but before the treatment and then lightly watered after treatment application. Thereafter flats were watered and fertilized routinely.

## CC1(C)CON(Cc2ccc(Cl)cc2Cl)C1=O [2,4-DC, 2-(2,4-dichlorophenyl)methyl-4,4-dimethyl-3-isoxazolidinone]
jimsonweed; 2,4-DC alone 125 g ai/ha
  X: 37%
jimsonweed; 2,4-DC alone 170 g ai/ha
  X: 40%
jimsonweed; 2,4-DC alone 210 g ai/ha
  X: 48%
jimsonweed; 2,4-DC alone 250 g ai/ha
  X: 53%
Morningglory sp.; PRE, 2,4-DC 50 g ai/ha
  X (% control, 2,4-DC alone): 0%
Morningglory sp.; PRE, 2,4-DC 100 g ai/ha
  X (% control, 2,4-DC alone): 2%
Morningglory sp.; PRE, 2,4-DC 200 g ai/ha
  X (% control, 2,4-DC alone): 2%
[1]
  weed control / crop safety in words: applied at 125 g ai/ha provided suppression (70-84% injury) to corn poppy, higher rates controlled (≥85% injury) corn poppy; also recorded: Wheat, barley, and oilseed rape (OSR) were safe (≤10% injury) with all stand alone treatments
weeds
  weed control in words: alone at 250 g ai/ha controlled common lambsquarters
Barley; POST, 2,4-DC 125 g ai/ha
  X (% crop injury, 2,4-DC alone): 4%
Barley; POST, 2,4-DC 170 g ai/ha
  X (% crop injury, 2,4-DC alone): 6%
Barley; POST, 2,4-DC 210 g ai/ha
  X (% crop injury, 2,4-DC alone): 8%
Barley; POST, 2,4-DC 250 g ai/ha
  X (% crop injury, 2,4-DC alone): 14%
wheat; POST, 2,4-DC 125 g ai/ha
  X (% crop injury, 2,4-DC alone): 5%
wheat; POST, 2,4-DC 170 g ai/ha
  X (% crop injury, 2,4-DC alone): 14%
wheat; POST, 2,4-DC 210 g ai/ha
  X (% crop injury, 2,4-DC alone): 17%
wheat; POST, 2,4-DC 250 g ai/ha
  X (% crop injury, 2,4-DC alone): 31%
weeds; Corn
  weed control / crop safety in words: applied alone controlled (≥85% injury) black nightshade at 170 g ai/ha, did not provide control of other weeds tested when applied alone at any rate, and was safe on corn at all rates
sedges
  weed control in words: alone did not provide control of sedges at any rate except benghal dayflower at 400 g
Wild buckwheat; 2,4-DC alone 125 g ai/ha
  X: 8%
Wild buckwheat; 2,4-DC alone 170 g ai/ha
  X: 25%
Wild buckwheat; 2,4-DC alone 210 g ai/ha
  X: 28%
Wild buckwheat; 2,4-DC alone 250 g ai/ha
  X: 38%
